Measured values as given in patent US6737383B1, “Herbicidal oxadiazolidines” (priority 1999, dated 2004).

What was measured:
bamyardgrass = test: Test B flood test barnyardgrass; format: in vivo, Echinochloa crus-galli
How it was run: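 Plants were grown to the 2-leaf stage before treatment with test chemical, then held in a greenhouse for twelve to sixteen days. Injury was visually rated against untreated controls on a 0–10 scale, where 0 is no effect and 10 is complete control.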

crabgrass = test: Test B pre/postemergence crabgrass; format: in vivo, Digitaria sanguinalis
How it was run: (§1)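 Response is a visual 0-to-10 score relative to untreated plants, where 0 means no effect and 10 means complete control, taken twelve to sixteen days after application. Treatments went onto soil at planting and onto foliage of 1- to 4-leaf plants, using a surfactant-containing non-phytotoxic solvent.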

morningglory = test: Test B pre/postemergence morningglory; format: in vivo, Ipomoea hederacea
How it was run: as §1

blackgrass = test: Test B pre/postemergence blackgrass; format: in vivo, Alopecurus myosuroides
How it was run: as §1

[1] = Rate 62 g/ha, headed Pre-emergence (flood test species), scale 0 to 10 (0 no effect, 10 complete control)
[2] = Rate 125 g/ha, Pre-emergence, flood test species, scale 0 to 10 where 0 is no effect and 10 is complete control
[3] = Rate 250 g/ha, Pre-emergence, flood-test species, scale 0 to 10, 0 is no effect, 10 is complete control
[4] = Rate 500 g/ha, Pre-emergence, flood test species, scale 0 to 10 (0 no effect, 10 complete control)
[5] = Postemergence, Rate 125 g/ha, scale 0 to 10, 0 is no effect, 10 is complete control
[6] = Preemergence, Rate 62 g/ha, scale of 0 to 10 where 0 is no effect and 10 is complete control
[7] = Preemergence, Rate 250 g/ha, scale of 0 to 10 where 0 is no effect and 10 is complete control
[8] = Preemergence, Rate 500 g/ha, scale of 0 to 10 where 0 is no effect and 10 is complete control
[9] = Rate 62 g/ha, Postemergence, scale 0 to 10 (0 no effect, 10 complete control)
[10] = Rate 500 g/ha, Postemergence, scale 0 to 10, 0 no effect, 10 complete control
[11] = Rate 250 g/ha, Postemergence, scale of 0 to 10 where 0 is no effect and 10 is complete control
[12] = Rate 62 g/ha, Postemergence, scale of 0 to 10 where 0 is no effect and 10 is complete control
[13] = Postemergence (flood test), Rate 125 g/ha, scale 0 to 10, 0 is no effect, 10 is complete control
[14] = Rate 62 g/ha, Postemergence (flood test species), scale of 0 to 10 where 0 is no effect and 10 is complete control
[15] = Rate 250 g/ha, Postemergence (flood test species), scale of 0 to 10 where 0 is no effect and 10 is complete control
[16] = Rate 500 g/ha, listed under Postemergence (flood test species), scale 0 to 10, 0 no effect, 10 complete control
[17] = Preemergence, Rate 62 g/ha, scale 0 to 10 (0 no effect, 10 complete control)
[18] = Postemergence, Rate 250 g/ha, scale 0 to 10, 0 is no effect, 10 is complete control

Row | Structure (SMILES) | Barnyardgrass plant response rating (bamyardgrass; [3]) | Barnyardgrass plant response rating (bamyardgrass; [4]) | Plant response rating, Crabgrass (crabgrass; [5]) | Crabgrass plant response rating (0 to 10 scale) (crabgrass; Preemergence, Rate 125 g/ha) | Crabgrass plant response rating (crabgrass; [7]) | Crabgrass plant response rating (crabgrass; [8]) | Plant response rating, Crabgrass (crabgrass; [10]) | Plant response rating, Morningglory (morningglory; [5]) | Morningglory plant response rating (0 to 10 scale) (morningglory; Preemergence, Rate 125 g/ha) | Morningglory plant response rating (morningglory; [7]) | Morningglory plant response rating (morningglory; [8]) | Plant response rating, Morningglory (morningglory; [10]) | Plant response rating, Blackgrass (blackgrass; [5]) | Blackgrass plant response rating (0 to 10 scale) (blackgrass; Preemergence, Rate 125 g/ha) | Blackgrass plant response rating (blackgrass; [7]) | Blackgrass plant response rating (blackgrass; [8]) | Plant response rating, Blackgrass (blackgrass; [11]) | Plant response rating, Blackgrass (blackgrass; [10]) | Crabgrass plant response rating (crabgrass; [12]) | Morningglory plant response rating (morningglory; [12]) | also measured
1 | Cc1c(-n2c(=O)on(C(=O)N(c3ccc(F)cc3F)C(C)C)c2=O)ccc2ccccc12 [Compound 337] | 0 | 5 | 0 | 0 | 0 | 3 | 0 | 0 | 0 | 0 | 0 | 0 | 0 | 0 | 2 | 3 | 0 | 0 | – | – | Barnyardgrass plant response rating (bamyardgrass; [1]): 0; Barnyardgrass plant response rating (bamyardgrass; [2]): 0; Crabgrass plant response rating (crabgrass; [6]): 0; Crabgrass plant response rating (crabgrass; [9]): 0; Morningglory plant response rating (morningglory; [6]): 0; Morningglory plant response rating (morningglory; [9]): 0; Blackgrass plant response rating (blackgrass; [6]): 0; Blackgrass plant response rating (blackgrass; [9]): 0
2 | Cc1c(-n2c(=O)on(C(=O)N(c3ccc(F)cc3)C(C)C)c2=O)ccc2ccccc12 [Compound 338] | 0 | 9 | 0 | 0 | 0 | 0 | 0 | 0 | 0 | 0 | 0 | 2 | 0 | 0 | 0 | 0 | 0 | 0 | – | – | Barnyardgrass plant response rating (bamyardgrass; [1]): 0; Barnyardgrass plant response rating (bamyardgrass; [2]): 0; Crabgrass plant response rating (crabgrass; [6]): 0; Crabgrass plant response rating (crabgrass; [9]): 0; Morningglory plant response rating (morningglory; [6]): 0; Morningglory plant response rating (morningglory; [9]): 0; Blackgrass plant response rating (blackgrass; [6]): 0; Blackgrass plant response rating (blackgrass; [9]): 0
3 | CC(C)N(C(=O)n1oc(=O)n(C2CCCCCC2)c1=O)c1ccc(Cl)cc1 [Compound 339] | 9 | 9 | 0 | 0 | 2 | 5 | 2 | 2 | 0 | 0 | 0 | 10 | 0 | 0 | 2 | 3 | 0 | 2 | 0 | 2 | Barnyardgrass plant response rating (bamyardgrass; [1]): 2; Barnyardgrass plant response rating (bamyardgrass; [2]): 8; Crabgrass plant response rating (crabgrass; [6]): 0; Morningglory plant response rating (morningglory; [6]): 0; Blackgrass plant response rating (blackgrass; [6]): 0; Blackgrass plant response rating (blackgrass; [12]): 0
4 | CC(C)N(C(=O)n1oc(=O)n(C2CCC2)c1=O)c1ccccc1 [Compound 348] | – | – | 2 | 7 | 10 | 10 | 6 | 9 | 0 | 0 | 0 | 10 | 3 | 6 | 9 | 9 | 6 | 7 | 1 | 2 | Plant response rating, Barnyardgrass (bamyardgrass; [13]): 2; Barnyardgrass plant response rating (bamyardgrass; [14]): 2; Plant response rating, Barnyardgrass (bamyardgrass; [15]): 3; Plant response rating, Barnyardgrass (bamyardgrass; [16]): 7; Plant response rating, Crabgrass (crabgrass; [17]): 7; Plant response rating, Morningglory (morningglory; [17]): 0; Plant response rating, Blackgrass (blackgrass; [17]): 4; Blackgrass plant response rating (blackgrass; [12]): 2
5 | CC(C)N(C(=O)n1oc(=O)n(C2CCC2)c1=O)c1ccc(Cl)cc1 [Compound 349] | – | – | 0 | 6 | 8 | 9 | 3 | 5 | 0 | 0 | 0 | 10 | 4 | 2 | 4 | 4 | 4 | 6 | 0 | 5 | Plant response rating, Barnyardgrass (bamyardgrass; [13]): 2; Barnyardgrass plant response rating (bamyardgrass; [14]): 2; Plant response rating, Barnyardgrass (bamyardgrass; [15]): 9; Plant response rating, Barnyardgrass (bamyardgrass; [16]): 9; Plant response rating, Crabgrass (crabgrass; [17]): 3; Plant response rating, Morningglory (morningglory; [17]): 0; Plant response rating, Blackgrass (blackgrass; [17]): 2; Blackgrass plant response rating (blackgrass; [12]): 1
6 | Cc1nsc(Cl)c1Cn1c(=O)on(C(=O)N(c2ccc(F)cc2)C(C)C)c1=O [Compound 373] | 0 | 0 | 0 | 7 | 10 | 10 | 2 | 8 | 0 | 0 | 1 | 8 | 0 | 3 | 5 | 7 | – | 0 | 0 | 8 | Plant response rating, Barnyardgrass (0 to 10 scale, 0 is no effect, 10 is complete control) (bamyardgrass; Rate 62 g/ha, flood test species, Pre-emergence, visual evaluation after twelve to sixteen days): 0; Barnyardgrass plant response rating (0 to 10 scale, 0 is no effect, 10 is complete control) (bamyardgrass; Rate 125 g/ha, under heading Pre-emergence, flood test species, visual evaluation after twelve to sixteen days): 0; Plant response rating, Crabgrass (crabgrass; [18]): 1; Plant response rating, Crabgrass (crabgrass; [17]): 4; Plant response rating, Morningglory (morningglory; [18]): 8; Plant response rating, Morningglory (morningglory; [17]): 0; Plant response rating, Blackgrass (blackgrass; [18]): 0; Plant response rating, Blackgrass (blackgrass; [17]): 1; Blackgrass plant response rating (blackgrass; [12]): 0
